Measurements reported in patent US9809623B2, “α4β7 peptide monomer and dimer antagonists” (Protagonist Therapeutics, Inc., priority 2014, dated 2017).
pIC50: −log10 of the molar value. Several values for one entry are separate records, joined by “and”; a condition that tells them apart may be missing. Equal values may be shown once. Read-outs that look alike come from different tables or passages of the source. Numbered stars: 1 amine (or outer) side, 2 acyl side, 3 side chain; on linkers, the order of the positions; unused ones are H or OH. Bridge positions count the residues as written; N and C are the ends. Square brackets hold non-standard residues; d marks the D form. Peptide text beside a SMILES is read from it. I, II: the chains in the order shown. ξ: configuration not given here. Phe(4-COOH) = N[C@@H](Cc1ccc(C(=O)O)cc1)C(=O)O; Phe(4-tBu) = CC(C)(C)c1ccc(C[C@H](N)C(=O)O)cc1; 1Nal = N[C@@H](Cc1cccc2ccccc12)C(=O)O; Diglycolyl = O=C(COCC(=O)[*:2])[*:1]; NMeR = CN[C@@H](CCCNC(=N)N)C(=O)O; β3hE = N[C@@H](CCC(=O)O)CC(=O)O; Thr(3ξ) = CC(O)[C@H](N)C(=O)O; NMeK = CN[C@@H](CCCCN)C(=O)O; Pen = CC(C)(S)[C@H](N)C(=O)O

How the values were obtained:
[1] = target: T1, α4β1 (Homo sapiens, UniProt P05556+P13612, DEL729-798); assay: α4β1-VCAM Competition ELISA; assay type: binding
T1 construct: purchased R&D Systems 5668-A4
T1 sequence (P13612 34-977 limits assumed, stated change not applied): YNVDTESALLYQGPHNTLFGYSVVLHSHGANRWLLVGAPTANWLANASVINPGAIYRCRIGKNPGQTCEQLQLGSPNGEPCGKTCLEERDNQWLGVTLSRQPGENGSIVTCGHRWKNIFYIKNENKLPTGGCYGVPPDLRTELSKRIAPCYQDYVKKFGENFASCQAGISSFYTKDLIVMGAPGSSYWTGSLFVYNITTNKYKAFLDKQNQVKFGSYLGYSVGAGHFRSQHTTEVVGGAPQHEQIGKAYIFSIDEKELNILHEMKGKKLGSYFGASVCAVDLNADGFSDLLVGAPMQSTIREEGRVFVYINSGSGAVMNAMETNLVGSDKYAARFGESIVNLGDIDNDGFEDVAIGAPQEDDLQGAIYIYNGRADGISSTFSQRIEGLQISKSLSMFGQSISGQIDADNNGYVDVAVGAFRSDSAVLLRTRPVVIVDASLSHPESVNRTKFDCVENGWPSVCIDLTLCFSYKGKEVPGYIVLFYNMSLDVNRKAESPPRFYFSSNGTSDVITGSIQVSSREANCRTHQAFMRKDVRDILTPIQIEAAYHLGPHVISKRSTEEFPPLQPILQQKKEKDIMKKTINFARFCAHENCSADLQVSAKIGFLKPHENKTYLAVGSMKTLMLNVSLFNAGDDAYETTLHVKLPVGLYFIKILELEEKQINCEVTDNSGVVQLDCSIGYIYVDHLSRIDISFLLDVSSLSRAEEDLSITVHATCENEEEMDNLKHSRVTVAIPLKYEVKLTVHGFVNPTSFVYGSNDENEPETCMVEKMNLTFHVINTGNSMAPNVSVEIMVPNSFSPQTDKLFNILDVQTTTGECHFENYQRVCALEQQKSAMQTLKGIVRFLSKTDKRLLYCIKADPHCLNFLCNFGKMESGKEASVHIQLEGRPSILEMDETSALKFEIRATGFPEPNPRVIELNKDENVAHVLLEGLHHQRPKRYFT
T1 sequence (P05556 21-728 limits assumed, stated change not applied): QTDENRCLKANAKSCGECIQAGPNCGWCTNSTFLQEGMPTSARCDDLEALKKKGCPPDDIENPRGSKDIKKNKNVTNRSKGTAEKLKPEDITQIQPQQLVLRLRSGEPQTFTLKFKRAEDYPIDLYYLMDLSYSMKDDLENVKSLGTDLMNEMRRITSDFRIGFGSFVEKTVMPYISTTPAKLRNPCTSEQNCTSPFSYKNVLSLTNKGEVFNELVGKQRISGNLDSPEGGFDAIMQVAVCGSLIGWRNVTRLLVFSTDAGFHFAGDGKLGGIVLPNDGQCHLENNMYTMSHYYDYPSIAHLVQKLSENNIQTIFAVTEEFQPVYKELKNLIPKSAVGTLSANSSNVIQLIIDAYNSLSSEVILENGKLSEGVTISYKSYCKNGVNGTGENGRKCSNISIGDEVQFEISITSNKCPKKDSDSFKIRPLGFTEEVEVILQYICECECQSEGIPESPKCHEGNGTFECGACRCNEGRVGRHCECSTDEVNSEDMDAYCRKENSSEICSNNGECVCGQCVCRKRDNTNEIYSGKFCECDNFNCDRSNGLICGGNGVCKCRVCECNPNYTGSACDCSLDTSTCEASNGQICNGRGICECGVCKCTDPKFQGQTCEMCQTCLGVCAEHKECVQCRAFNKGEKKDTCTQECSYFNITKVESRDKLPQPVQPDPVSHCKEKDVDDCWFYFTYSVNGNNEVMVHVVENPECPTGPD
Outline: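 Recombinant α4β1 (60 nM final) competed with serially diluted peptides (top final 100 μM) for VCAM-1 Fc coated at 400 ng/well, in Tris pH 7.6 with 1 mM MnCl2 or MgCl2, for 2 h at 37 °C. Bound integrin was detected with anti-CD49d 9F10 plus HRP anti-mouse IgG, using TMB read at 450 nm.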

[2] = target: α4β7 (Homo sapiens, UniProt P13612+P26010); assay: PBMC Memory T Cell Adhesion Assay, adhesion to MAdCAM-1; assay type: cell-based
α4β7, sequence (P13612 34-1032): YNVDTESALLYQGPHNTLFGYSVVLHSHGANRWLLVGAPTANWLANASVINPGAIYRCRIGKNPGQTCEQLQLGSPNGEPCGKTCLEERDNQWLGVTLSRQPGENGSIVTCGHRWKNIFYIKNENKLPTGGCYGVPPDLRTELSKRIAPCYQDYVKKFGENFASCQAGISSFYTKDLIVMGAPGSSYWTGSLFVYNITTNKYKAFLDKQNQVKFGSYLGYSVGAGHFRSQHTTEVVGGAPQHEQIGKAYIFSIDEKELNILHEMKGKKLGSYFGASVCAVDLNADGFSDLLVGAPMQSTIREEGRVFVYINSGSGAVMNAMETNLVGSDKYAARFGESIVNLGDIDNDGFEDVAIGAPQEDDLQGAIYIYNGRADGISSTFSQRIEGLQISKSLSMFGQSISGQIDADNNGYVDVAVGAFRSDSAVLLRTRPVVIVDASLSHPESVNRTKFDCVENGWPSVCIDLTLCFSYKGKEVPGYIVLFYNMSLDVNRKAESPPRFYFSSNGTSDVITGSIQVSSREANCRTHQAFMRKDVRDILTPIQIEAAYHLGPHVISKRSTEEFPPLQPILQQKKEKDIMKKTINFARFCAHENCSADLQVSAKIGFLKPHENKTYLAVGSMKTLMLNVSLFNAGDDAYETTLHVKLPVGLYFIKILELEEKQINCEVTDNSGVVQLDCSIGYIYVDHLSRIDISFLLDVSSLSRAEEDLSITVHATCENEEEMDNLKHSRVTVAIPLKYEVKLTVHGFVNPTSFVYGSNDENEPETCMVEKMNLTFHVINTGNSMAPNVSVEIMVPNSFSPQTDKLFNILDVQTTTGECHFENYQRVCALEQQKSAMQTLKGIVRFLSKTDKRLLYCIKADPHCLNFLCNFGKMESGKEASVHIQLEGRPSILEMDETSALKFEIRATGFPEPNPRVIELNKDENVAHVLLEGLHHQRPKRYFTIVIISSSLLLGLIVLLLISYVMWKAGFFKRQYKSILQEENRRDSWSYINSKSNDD
α4β7, sequence (P26010 20-798): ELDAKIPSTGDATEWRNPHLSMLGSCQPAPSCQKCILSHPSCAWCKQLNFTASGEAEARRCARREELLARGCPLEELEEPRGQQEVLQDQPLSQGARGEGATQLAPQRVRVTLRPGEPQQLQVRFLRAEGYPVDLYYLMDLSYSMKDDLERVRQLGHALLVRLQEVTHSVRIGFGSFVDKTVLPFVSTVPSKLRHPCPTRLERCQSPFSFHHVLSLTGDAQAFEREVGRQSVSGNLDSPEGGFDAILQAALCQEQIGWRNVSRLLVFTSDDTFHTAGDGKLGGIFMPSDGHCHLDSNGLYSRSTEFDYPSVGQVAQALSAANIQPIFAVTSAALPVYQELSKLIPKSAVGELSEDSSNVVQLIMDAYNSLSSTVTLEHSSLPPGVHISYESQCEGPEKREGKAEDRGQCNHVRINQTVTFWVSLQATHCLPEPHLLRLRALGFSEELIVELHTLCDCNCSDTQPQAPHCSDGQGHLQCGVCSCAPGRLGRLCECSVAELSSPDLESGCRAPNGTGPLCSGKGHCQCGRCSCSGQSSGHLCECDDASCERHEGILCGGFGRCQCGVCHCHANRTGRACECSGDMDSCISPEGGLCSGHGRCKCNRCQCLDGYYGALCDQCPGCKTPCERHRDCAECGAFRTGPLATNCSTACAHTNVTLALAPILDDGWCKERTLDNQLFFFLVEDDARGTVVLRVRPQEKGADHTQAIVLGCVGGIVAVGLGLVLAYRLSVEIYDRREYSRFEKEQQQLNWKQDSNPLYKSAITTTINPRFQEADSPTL
Procedure: Fresh CD4+/CD45RO+ memory T cells were isolated from human peripheral blood mononuclear cell (PBMC) donors by Aragen Bioscience Inc. (Morgan Hill, Calif.). The assay plate was prepared using IgG Fc capture antibody (donkey anti human) immobilized at 500 ng/well in 50 mM sodium bicarbonate buffer, pH 9.5, ON, 4C onto a Greiner Fluotrac plate (100 ul per well). The plate was rinsed two time with Blocking Buffer (25 mM Tris HCl, pH7.5, 150 mM NaCl, 1.5% BSA, 0.05% Tween), and blocked with Blocking Buffer for 2 hours at 37 C or 5 hours at RT using 200 ul per well. The Blocking Buffer was removed and either MAdCAM-1 or VCAM-1 at 400 ng/well in Blocking Buffer was added and the plate incubated overnight at 4C (100 ul per well). The plate was washed two times with Blocking Buffer, and rinsed once with 200 ul Binding Media (DMEM phenol red free, 10 mM HEPES, 1×Na pyruvate, 1× Glutamine, and supplemented with 1 mM MnCl2 prior to use). To prepare cells, approximately 25 million CD4+/CD45RO+ memory T cells were counted by trypan blue exclusion using a haemocytometer to determine viability and cell count. The cells were transferred to a 50 ml conical tube, and centrifuged at 1200 rpm for 10 minute. The media was aspirated and the cell pellet resuspended in 15 ml Binding Media. The cells were centrifuged again and resuspended in the appropriate amount of Binding Media to be used for assays (50 ul of cells per well at 2× the final density). To each well, and equal volume (50 ul) of test compound was added and the plate was incubated for 1.5 hours at 37 C, 5% CO2. Each well was rinsed 3× with 150 ul per well of Binding Media. […] The plate was incubated at 37 C, 5% CO2, for 45 minutes. The plate was protected from light by using black adhesive seals. Fluorescence intensity was measured using a Molecular Devices Gemini EM Fluorescent Plate Reader (Ex 485/Em530, Bottom Read, Reading Sensitivity=20). IC50 curves are generated using Graph Pad Prism and the curves analyzed using analyzed using a non-linear regression (four parameters) algorithm. The log (concentration) versus RFU (Ex485/Em530) was plotted to determine IC50 values.

[3] = Table 3-B, Selectivity (α4β1), range classes, read-out: α4β1 ELISA IC50
[4] = Table 3-B, range classes, read-out: PBMC IC50

SMILES	pIC50 ([1]; 1 mM Mg^2+ binding conditions, read-out: IC50 for α4β1, competition ELISA)	pIC50 ([1]; b977, second statement, conditions not stated, read-out: IC50 for α4β1)	IC50 ([2]; average, cells isolated from 4 different human PBMC donors, read-out: IC50 (nM), memory T cells, Integrin α4β7, Ligand MAdCAM-1) [nM]	pIC50 ([2]; read-out: IC50 for α4β7 T cells)	pIC50 [1, 3]	pIC50 [2, 4]
CC(=O)N[C@@H]1C(=O)N(C)[C@@H](CCCNC(=N)N)C(=O)N[C@@H](CO)C(=O)N[C@@H](CC(=O)O)C(=O)N[C@@H](C(C)O)C(=O)N[C@@H](CC(C)C)C(=O)N[C@H](C(=O)N[C@@H](Cc2ccc(C(C)(C)C)cc2)C(=O)N[C@@H](CCC(=O)O)CC(=O)N[C@H](CCCCNC(=O)COCC(=O)NCCCC[C@@H](NC(=O)C[C@H](CCC(=O)O)NC(=O)[C@H](Cc2ccc(C(C)(C)C)cc2)NC(=O)[C@H]2NC(=O)[C@H](CC(C)C)NC(=O)[C@H](C(C)O)NC(=O)[C@H](CC(=O)O)NC(=O)[C@H](CO)NC(=O)[C@H](CCCNC(=N)N)N(C)C(=O)[C@@H](NC(C)=O)C(C)(C)SSC2(C)C)C(N)=O)C(N)=O)C(C)(C)SSC1(C)C (stereo partly drawn) [Peptide X, [Ac-Pen-(N-Me-Arg)-Ser-Asp-Thr-Leu-Pen-(Phe(4-tBu))-(β-homoGlu)-(D-Lys)]2-DIG] (I: Ac-[Pen][NMeR]SD[Thr(3ξ)]L[Pen][Phe(4-tBu)][β3hE][dK]-NH2 / II: Ac-[Pen][NMeR]SD[Thr(3ξ)]L[Pen][Phe(4-tBu)][β3hE][dK]-NH2; disulfide I:1-I:7, II:1-II:7; linker I:10-II:10 via Diglycolyl)	< 5.00	< 4.00	1.3	9.00		
CC(=O)N[C@@H]1C(=O)N(C)[C@@H](CCCNC(=N)N)C(=O)N[C@@H](CO)C(=O)N[C@@H](CC(=O)O)C(=O)N[C@@H]([C@@H](C)O)C(=O)N[C@@H](CC(C)C)C(=O)N[C@H](C(=O)N[C@@H](Cc2c[nH]c3ccccc23)C(=O)N[C@H](CCC(=O)O)C(=O)N[C@H](CCCCNC(=O)COCC(=O)NCCCC[C@@H](NC(=O)[C@@H](CCC(=O)O)NC(=O)[C@H](Cc2c[nH]c3ccccc23)NC(=O)[C@H]2NC(=O)[C@H](CC(C)C)NC(=O)[C@H]([C@@H](C)O)NC(=O)[C@H](CC(=O)O)NC(=O)[C@H](CO)NC(=O)[C@H](CCCNC(=N)N)N(C)C(=O)[C@@H](NC(C)=O)C(C)(C)SSC2(C)C)C(N)=O)C(N)=O)C(C)(C)SSC1(C)C [compound 68] (I: Ac-[Pen][NMeR]SDTL[Pen]W[dE][dK]-NH2 / II: Ac-[Pen][NMeR]SDTL[Pen]W[dE][dK]-NH2; disulfide I:1-I:7, II:1-II:7; linker I:10-II:10 via Diglycolyl)					6.00 to 6.30	6.30 to 7.00
CC(=O)N[C@@H]1C(=O)N(C)[C@@H](CCCNC(=N)N)C(=O)N[C@@H](CO)C(=O)N[C@@H](CC(=O)O)C(=O)N[C@@H]([C@@H](C)O)C(=O)N[C@@H](CC(C)C)C(=O)N[C@H](C(=O)N[C@@H](Cc2ccc(C(=O)O)cc2)C(=O)N[C@@H](CCC(=O)O)C(=O)N[C@H](CCCCNC(=O)COCC(=O)NCCCC[C@@H](NC(=O)[C@H](CCC(=O)O)NC(=O)[C@H](Cc2ccc(C(=O)O)cc2)NC(=O)[C@H]2NC(=O)[C@H](CC(C)C)NC(=O)[C@H]([C@@H](C)O)NC(=O)[C@H](CC(=O)O)NC(=O)[C@H](CO)NC(=O)[C@H](CCCNC(=N)N)N(C)C(=O)[C@@H](NC(C)=O)C(C)(C)SSC2(C)C)C(N)=O)C(N)=O)C(C)(C)SSC1(C)C [compound 129] (I: Ac-[Pen][NMeR]SDTL[Pen][Phe(4-COOH)]E[dK]-NH2 / II: Ac-[Pen][NMeR]SDTL[Pen][Phe(4-COOH)]E[dK]-NH2; disulfide I:1-I:7, II:1-II:7; linker I:10-II:10 via Diglycolyl)					6.30 to 7.00	> 8.00
CC(=O)N[C@@H]1C(=O)N(C)[C@@H](CCCNC(=N)N)C(=O)N[C@@H](CO)C(=O)N[C@@H](CC(=O)O)C(=O)N[C@@H]([C@@H](C)O)C(=O)N[C@@H](CC(C)C)C(=O)N[C@H](C(=O)N[C@@H](Cc2ccc(C(=O)O)cc2)C(=O)N[C@@H](CCC(=O)O)CC(=O)N[C@H](CCCCNC(=O)COCC(=O)NCCCC[C@@H](NC(=O)C[C@H](CCC(=O)O)NC(=O)[C@H](Cc2ccc(C(=O)O)cc2)NC(=O)[C@H]2NC(=O)[C@H](CC(C)C)NC(=O)[C@H]([C@@H](C)O)NC(=O)[C@H](CC(=O)O)NC(=O)[C@H](CO)NC(=O)[C@H](CCCNC(=N)N)N(C)C(=O)[C@@H](NC(C)=O)C(C)(C)SSC2(C)C)C(N)=O)C(N)=O)C(C)(C)SSC1(C)C [compound 130] (I: Ac-[Pen][NMeR]SDTL[Pen][Phe(4-COOH)][β3hE][dK]-NH2 / II: Ac-[Pen][NMeR]SDTL[Pen][Phe(4-COOH)][β3hE][dK]-NH2; disulfide I:1-I:7, II:1-II:7; linker I:10-II:10 via Diglycolyl)					6.30 to 7.00	> 8.00
CC(=O)N[C@@H]1C(=O)N(C)[C@@H](CCCNC(=N)N)C(=O)N[C@@H](CO)C(=O)N[C@@H](CC(=O)O)C(=O)N[C@@H]([C@@H](C)O)C(=O)N[C@@H](CC(C)C)C(=O)N[C@H](C(=O)N[C@@H](Cc2ccc(C(C)(C)C)cc2)C(=O)N[C@@H](CCC(=O)O)CC(=O)N[C@H](CCCCNC(=O)COCC(=O)NCCCC[C@@H](NC(=O)C[C@H](CCC(=O)O)NC(=O)[C@H](Cc2ccc(C(C)(C)C)cc2)NC(=O)[C@H]2NC(=O)[C@H](CC(C)C)NC(=O)[C@H]([C@@H](C)O)NC(=O)[C@H](CC(=O)O)NC(=O)[C@H](CO)NC(=O)[C@H](CCCNC(=N)N)N(C)C(=O)[C@@H](NC(C)=O)C(C)(C)SSC2(C)C)C(N)=O)C(N)=O)C(C)(C)SSC1(C)C [compound 132] (I: Ac-[Pen][NMeR]SDTL[Pen][Phe(4-tBu)][β3hE][dK]-NH2 / II: Ac-[Pen][NMeR]SDTL[Pen][Phe(4-tBu)][β3hE][dK]-NH2; disulfide I:1-I:7, II:1-II:7; linker I:10-II:10 via Diglycolyl)					6.30 to 7.00 and 6.00 to 6.30	> 8.00
CC(=O)N[C@@H]1C(=O)N(C)[C@@H](CCCNC(=N)N)C(=O)N[C@@H](CO)C(=O)N[C@@H](CC(=O)O)C(=O)N[C@@H]([C@@H](C)O)C(=O)N[C@@H](CC(C)C)C(=O)N[C@H](C(=O)N[C@@H](Cc2cccc3ccccc23)C(=O)N[C@@H](CCC(=O)O)CC(=O)N(C)[C@@H](CCCCNC(=O)COCC(=O)NCCCC[C@@H](C(N)=O)N(C)C(=O)C[C@H](CCC(=O)O)NC(=O)[C@H](Cc2cccc3ccccc23)NC(=O)[C@H]2NC(=O)[C@H](CC(C)C)NC(=O)[C@H]([C@@H](C)O)NC(=O)[C@H](CC(=O)O)NC(=O)[C@H](CO)NC(=O)[C@H](CCCNC(=N)N)N(C)C(=O)[C@@H](NC(C)=O)C(C)(C)SSC2(C)C)C(N)=O)C(C)(C)SSC1(C)C [compound 142] (I: Ac-[Pen][NMeR]SDTL[Pen][1Nal][β3hE][NMeK]-NH2 / II: Ac-[Pen][NMeR]SDTL[Pen][1Nal][β3hE][NMeK]-NH2; disulfide I:1-I:7, II:1-II:7; linker I:10-II:10 via Diglycolyl)					6.00 to 6.30	7.00 to 7.30
CC(=O)N[C@@H]1C(=O)N(C)[C@@H](CCCNC(=N)N)C(=O)N[C@@H](CO)C(=O)N[C@@H](CC(=O)O)C(=O)N[C@@H]([C@@H](C)O)C(=O)N[C@@H](CC(C)C)C(=O)N[C@H](C(=O)N[C@@H](Cc2ccc(C(=O)O)cc2)C(=O)N[C@@H](CCC(=O)O)C(=O)N(C)[C@@H](CCCCNC(=O)COCC(=O)NCCCC[C@@H](C(N)=O)N(C)C(=O)[C@H](CCC(=O)O)NC(=O)[C@H](Cc2ccc(C(=O)O)cc2)NC(=O)[C@H]2NC(=O)[C@H](CC(C)C)NC(=O)[C@H]([C@@H](C)O)NC(=O)[C@H](CC(=O)O)NC(=O)[C@H](CO)NC(=O)[C@H](CCCNC(=N)N)N(C)C(=O)[C@@H](NC(C)=O)C(C)(C)SSC2(C)C)C(N)=O)C(C)(C)SSC1(C)C [compound 147] (I: Ac-[Pen][NMeR]SDTL[Pen][Phe(4-COOH)]E[NMeK]-NH2 / II: Ac-[Pen][NMeR]SDTL[Pen][Phe(4-COOH)]E[NMeK]-NH2; disulfide I:1-I:7, II:1-II:7; linker I:10-II:10 via Diglycolyl)					6.30 to 7.00	> 8.00
